# Data taken from patent publication US9586993B2, “CD44v6-derived peptides for treating pancreatic cancer” (AMCURE GMBH, priority 2012, dated 2017).
# “Also recorded” adds a separate entry of the source.
# What was measured:
# [1] = test system: L3.6p1 pancreatic carcinoma cells; assay: Human orthotopic model, L3.6p1 cells in the pancreas of nude mice; type: in vivo, mouse; details: dose reduction experiment, 0.2 to 20 μg per injection three times per week for 3 weeks
# Met = assay: HGF-induced Met activation in HeLa cells (western blot); type: cell-based, human; details: HGF 25 ng/ml, peptide 10 minutes before induction
# Experimental: FIG. 12: A: Activation of Met and signal transduction induced by HGF depends on CD44v6 in L3.6p1 cells. L3.6p1 cells were treated with the human v6 peptide (human v6 14mer) or the rat v6 peptide as control prior to induction with 10 ng/ml HGF. Activation of Met and ERK was determined in western blot. The numbers refer to the fold induction. The experiment was repeated at least 5 times. B: Activation of c-Met and signal transduction induced by HGF depends on CD44v6 HeLa cells. Starved HeLa cells respectively HT29 cells were incubated with the v6 peptide (human v6 14mer) or a control peptide for 10 minutes at 37° C. and then induced with 25 ng/ml of HGF for the indicated time points. Cells were then either lysed and the lysates were subjected to Western Blot analysis for phospho-Met and Met. C: Activation of c-Met and signal transduction induced by HGF depends on CD44v6 in HT29 cells. HGF-induced c-Met and Erk phosphorylation in HT29 was determined as described above using phospho-specific antibodies. […]
# The contribution of CD44v6 to Met signaling in the human epithelial pancreatic cancer cells L3.6p1 (derived from Colo 357), the cervix carcinoma cells HeLa and the colon cancer cells HT29 were analysed using the CD44v6 peptide (v6 14mer; v6 5mer tested as well, data not shown).
# [2] = test system: Met activation and downstream signaling to ERK; assay: HGF-induced activation of Met and ERK in L3.6p1 cells (western blot); type: cell-based, human; details: HGF 10 ng/ml
# Experimental: Serum-starved cells (24 hours) were induced with the growth factor HGF (10 ng/mL) at 37° C. for 5 minutes. Where indicated, the cells were treated with peptides (100 ng/ml) prior to induction at 37° C. for 10 minutes (100 ng/mL CD44v6 peptide or control peptide). Following the induction with HGF, cells were washed with ice-cold phosphate-buffered saline (PBS). To detect activated Met and Erk, cells were lysed in sodium dodecyl sulfate (SDS)-sample buffer containing 100 mM dithiothreitol (DTT), boiled and subjected to western blot analysis using antibodies against phospho-Met and ERK. The loading controls were performed on the same blot after stripping (62.5 mM Tris, pH 6.8, 2% SDS, 0.8% DTT) by probing with the Met respectively ERK antibody. Blots were stained using the enhanced chemiluminescence system (Thermo Fisher Scientific, Schwerte, Germany). Bands in western blot analysis were quantified with the program Image J (National Institutes of Health).
# To expand the studies to human pancreatic tumors, the highly metastatic human pancreatic carcinoma cells L3.6p1 (Bruns, et al. Neoplasia (1999), 1(1):50-62) were investigated. These cells originate from the […] cells that have been passaged several times in the liver and the pancreas, a step that rendered them more and more metastatic. It was confirmed that Met is dependent on CD44v6 for its activation and signaling in these cells (FIG. 4A). The L3.6p1 cells were treated with HGF in the presence or absence of a human v6 peptide of SEQ ID NO: 2 or SEQ ID NO:6 and Met activation and downstream signaling to ERK was measured.
# Erk phosphorylation = assay: EGF- and TGFα-induced Erk phosphorylation in MCF7 cells; type: cell-based, human
# ErbB receptors = assay: ErbB ligand-induced Erk-kinase phosphorylation in HT29 cells; type: cell-based, human; details: 100 ng/ml peptide; for inhibition of EGF-dependent Erk phosphorylation: 20 ng/ml EGF
# Experimental: (§1) Serum-starved HT29 cells were pre-incubated for 5 min with 100 ng/ml of a CD44v6-specific peptide (human v6 14mer) or a control peptide. Afterwards the cells were induced with 20 ng/ml of various ErbB ligands as indicated. The cell lysates were resolved by SDS-PAGE. Western-blotting was used to detect ErbB ligands-induced Erk-kinase phosphorylation.
# as §1, with “of” for “of a”, “(pep1=14mer, pep2=5mer)” for “(human v6 14mer)”, “EGF or TGFα and lysed.” for “various ErbB ligands as indicated.”, “EGF and TGFα induced” for “ErbB ligands-induced”
# For this purpose HT29 cells were serum-starved for 24 hours and pre-treated with the v6-specific or a control peptide. They were then induced with the indicated ErbB ligands. Erk-kinase phosphorylation was used as a read-out for receptor activation. All ligands could activate the Erk-kinase.
# VEGF = assay: Human VEGF in cell culture supernatant of L3.6p1 cells (Quantikine immunoassay); type: cell-based; details: 200 ng/ml peptide in the culture medium, 5 days
# Experimental: Determination of human HGF and VEGF levels in cell culture medium of L3.6p1 cells were performed using the Quantikine Human HGF Immunoassay and Quantikine Human VEGF Immunoassay from […]. For this purpose 3×10^6 cells were cultured for 5 days in a 15 cm plate in the presence of the respective peptides as indicated. The supernatant (20 ml) was centrifuged (1200 rpm) and the assay was performed according to manufacturer's instructions.
sequence,measurement,setting,value
"KEQWFGNRWHEGYR [human 14mer, human CD44v6 14mer peptide]",size / growth of the primary tumor,[1],significant decrease of the size of the primary tumor; also recorded: reduces growth of the primary tumor
same,inhibition of HGF-induced activation of Met and Erk,Met,able to prevent activation of Met and of its downstream target Erk
same,inhibition of HGF-induced activation (phosphorylation) of Met and ERK,[2],able to prevent activation of Met and of its downstream target Erk
same,inhibition of HGF-induced activation (phosphorylation) of Met and ERK,[2]; listed as SEQ ID NO:6,Phosphorylation of both Met and ERK was inhibited
same,Erk phosphorylation upon EGF treatment,Erk phosphorylation,blocking of Erk phosphorylation
same,Erk phosphorylation upon TGFα induction,Erk phosphorylation,not upon TGFα induction
same,inhibition of EGF-dependent Erk phosphorylation,ErbB receptors; listed as human v6 14mer,inhibited
same,inhibition of EGF-dependent Erk phosphorylation,ErbB receptors; listed as pep1,can be blocked
same,inhibition of ER-dependent Erk phosphorylation,ErbB receptors; 20 ng/ml ER,inhibited
same,"inhibition of ErbB receptor induction via TGF-α, BC, Her, HB-EGF or AR (Erk phosphorylation)",ErbB receptors; 20 ng/ml ligand,completely independent of CD44v6
same,hVEGF secretion by L3.6p1 cells,VEGF,can be blocked
